{
  "source": "patent US10500318B1",
  "about": "“Dosing regimens for treating hypoxia-associated tissue damage” (Temple Therapeutics BV, priority 2018, dated 2019)",
  "key": {"[1]": {"conditions": "at room temperature; cited from earlier work"}, "[2]": {"test_system": "HIF-1α", "assay": "HIF-1α ELISA in normal peritoneal fibroblasts after episodic hypoxia and Ala-Gln treatment", "assay_type": "cell-based", "conditions": "for HIF-1α 12 hours after hypoxia initiation / HIF-1α 24 hours after hypoxia initiation: NPF", "procedure": "Primary cultures of normal peritoneal fibroblasts (NPF) were established and pre-hypoxia samples were taken to determine levels of HIF-1α and Type 1 Collagen (COL1A1) under normoxic conditions prior to exposure to episodic hypoxic environments. Cultured cells were exposed to episodes of hypoxia (2% 02; 0.5, 1, 2, or 4, […] hours), followed by restoration of normoxia (20% O2) and immediate treatment with Ala-[…], 1, 2, or 10 mM). Levels of HIF-1α and COL1A1 were measured at 12 hours and 24 hours following the initiation of hypoxia. All treatments were completed in triplicate. HIF-1α and COL1A1 levels were determined by ELISA (HIF-1α ELISA (ThermoFisher Scientific) or COL1A1 ELISA (LifeSpan Biosciences), respectively, per the manufacturer's protocol). Data were analyzed with one-way ANOVA followed by Tukey's tests with Bonferroni correction. Results for HIF-1α are in Tables 1-3."}},
  "note": "Residues, ends and D or L forms follow the SMILES beside them.",
  "data": [
    {"smiles": "NC(=O)CC[C@H](N)C(=O)O", "note": "[L-glutamine]", "values": [
      {"measurement": "water solubility", "setting": "[1]", "result": "about 40 g/L"}
    ]},
    {"smiles": "C[C@H](N)C(=O)N[C@@H](CCC(N)=O)C(=O)O", "note": "[AG, L-alanyl-L-glutamine] (H-Ala-Gln-OH)", "values": [
      {"measurement": "HIF-1α difference from untreated controls", "setting": "[2]; AG 1.0 mM, 12 h post hypoxia initiation, hypoxia time 0.5 h", "result": 3.6, "unit": "pg/mg protein"},
      {"measurement": "HIF-1α difference from untreated controls", "setting": "[2]; AG 1.0 mM, 12 h post hypoxia initiation, hypoxia time 1.0 h", "result": 2.3, "unit": "pg/mg protein"},
      {"measurement": "HIF-1α difference from untreated controls", "setting": "[2]; AG 1.0 mM, 12 h post hypoxia initiation, hypoxia time 2.0 h", "result": 2.4, "unit": "pg/mg protein"},
      {"measurement": "HIF-1α difference from untreated controls", "setting": "[2]; AG 1.0 mM, 12 h post hypoxia initiation, hypoxia time 4.0 h", "result": 0.9, "unit": "pg/mg protein"},
      {"measurement": "HIF-1α difference from untreated controls", "setting": "[2]; AG 1.0 mM, 24 h post hypoxia initiation, hypoxia time 0.5 h", "result": 1.6, "unit": "pg/mg protein"},
      {"measurement": "HIF-1α difference from untreated controls", "setting": "[2]; AG 1.0 mM, 24 h post hypoxia initiation, hypoxia time 1.0 h", "result": 3.1, "unit": "pg/mg protein"},
      {"measurement": "HIF-1α difference from untreated controls", "setting": "[2]; AG 1.0 mM, 24 h post hypoxia initiation, hypoxia time 2.0 h", "result": 1.8, "unit": "pg/mg protein"},
      {"measurement": "HIF-1α difference from untreated controls", "setting": "[2]; AG 1.0 mM, 24 h post hypoxia initiation, hypoxia time 4.0 h", "result": 0.7, "unit": "pg/mg protein"},
      {"measurement": "HIF-1α 12 hours after hypoxia initiation", "setting": "[2]; AG 1.0 mM, hypoxia time 0.5 h", "result": 4.2, "unit": "pg/mg protein"},
      {"measurement": "HIF-1α 24 hours after hypoxia initiation", "setting": "[2]; AG 1.0 mM, hypoxia time 0.5 h", "result": 3.6, "unit": "pg/mg protein"},
      {"measurement": "HIF-1α 12 hours after hypoxia initiation", "setting": "[2]; AG 1.0 mM, hypoxia time 1.0 h", "result": 4.6, "unit": "pg/mg protein"},
      {"measurement": "HIF-1α 24 hours after hypoxia initiation", "setting": "[2]; AG 1.0 mM, hypoxia time 1.0 h", "result": 4.6, "unit": "pg/mg protein"},
      {"measurement": "HIF-1α 12 hours after hypoxia initiation", "setting": "[2]; AG 1.0 mM, hypoxia time 2.0 h", "result": 3.3, "unit": "pg/mg protein"},
      {"measurement": "HIF-1α 24 hours after hypoxia initiation", "setting": "[2]; AG 1.0 mM, hypoxia time 2.0 h", "result": 3.3, "unit": "pg/mg protein"},
      {"measurement": "HIF-1α 12 hours after hypoxia initiation", "setting": "[2]; AG 1.0 mM, hypoxia time 4.0 h", "result": 4.9, "unit": "pg/mg protein"},
      {"measurement": "HIF-1α 24 hours after hypoxia initiation", "setting": "[2]; AG 1.0 mM, hypoxia time 4.0 h", "result": 4.9, "unit": "pg/mg protein"},
      {"measurement": "HIF-1α difference from untreated controls", "setting": "[2]; AG 2.0 mM, 12 h post hypoxia initiation, hypoxia time 0.5 h", "result": 3.1, "unit": "pg/mg protein"},
      {"measurement": "HIF-1α difference from untreated controls", "setting": "[2]; AG 2.0 mM, 12 h post hypoxia initiation, hypoxia time 1.0 h", "result": 4.5, "unit": "pg/mg protein"},
      {"measurement": "HIF-1α difference from untreated controls", "setting": "[2]; AG 2.0 mM, 12 h post hypoxia initiation, hypoxia time 2.0 h", "result": 2.5, "unit": "pg/mg protein"},
      {"measurement": "HIF-1α difference from untreated controls", "setting": "[2]; AG 2.0 mM, 12 h post hypoxia initiation, hypoxia time 4.0 h", "result": 1.4, "unit": "pg/mg protein"},
      {"measurement": "HIF-1α difference from untreated controls", "setting": "[2]; AG 2.0 mM, 24 h post hypoxia initiation, hypoxia time 0.5 h", "result": 1.1, "unit": "pg/mg protein"},
      {"measurement": "HIF-1α difference from untreated controls", "setting": "[2]; AG 2.0 mM, 24 h post hypoxia initiation, hypoxia time 1.0 h", "result": 5.3, "unit": "pg/mg protein"},
      {"measurement": "HIF-1α difference from untreated controls", "setting": "[2]; AG 2.0 mM, 24 h post hypoxia initiation, hypoxia time 2.0 h", "result": 1.9, "unit": "pg/mg protein"},
      {"measurement": "HIF-1α difference from untreated controls", "setting": "[2]; AG 2.0 mM, 24 h post hypoxia initiation, hypoxia time 4.0 h", "result": 1.2, "unit": "pg/mg protein"},
      {"measurement": "HIF-1α 12 hours after hypoxia initiation", "setting": "[2]; AG 2.0 mM, hypoxia time 0.5 h", "result": 4.7, "unit": "pg/mg protein"},
      {"measurement": "HIF-1α 24 hours after hypoxia initiation", "setting": "[2]; AG 2.0 mM, hypoxia time 0.5 h", "result": 4.1, "unit": "pg/mg protein"},
      {"measurement": "HIF-1α 12 hours after hypoxia initiation", "setting": "[2]; AG 2.0 mM, hypoxia time 1.0 h", "result": 2.4, "unit": "pg/mg protein"},
      {"measurement": "HIF-1α 24 hours after hypoxia initiation", "setting": "[2]; AG 2.0 mM, hypoxia time 1.0 h", "result": 2.4, "unit": "pg/mg protein"},
      {"measurement": "HIF-1α 12 hours after hypoxia initiation", "setting": "[2]; AG 2.0 mM, hypoxia time 2.0 h", "result": 3.2, "unit": "pg/mg protein"},
      {"measurement": "HIF-1α 24 hours after hypoxia initiation", "setting": "[2]; AG 2.0 mM, hypoxia time 2.0 h", "result": 3.2, "unit": "pg/mg protein"},
      {"measurement": "HIF-1α 12 hours after hypoxia initiation", "setting": "[2]; AG 2.0 mM, hypoxia time 4.0 h", "result": 4.4, "unit": "pg/mg protein"},
      {"measurement": "HIF-1α 24 hours after hypoxia initiation", "setting": "[2]; AG 2.0 mM, hypoxia time 4.0 h", "result": 4.4, "unit": "pg/mg protein"},
      {"measurement": "HIF-1α difference from untreated controls", "setting": "[2]; AG 10.0 mM, 12 h post hypoxia initiation, hypoxia time 0.5 h", "result": 2.6, "unit": "pg/mg protein"},
      {"measurement": "HIF-1α difference from untreated controls", "setting": "[2]; AG 10.0 mM, 12 h post hypoxia initiation, hypoxia time 1.0 h", "result": 3.0, "unit": "pg/mg protein"},
      {"measurement": "HIF-1α difference from untreated controls", "setting": "[2]; AG 10.0 mM, 12 h post hypoxia initiation, hypoxia time 2.0 h", "result": 1.6, "unit": "pg/mg protein"},
      {"measurement": "HIF-1α difference from untreated controls", "setting": "[2]; AG 10.0 mM, 12 h post hypoxia initiation, hypoxia time 4.0 h", "result": 0.3, "unit": "pg/mg protein"},
      {"measurement": "HIF-1α difference from untreated controls", "setting": "[2]; AG 10.0 mM, 24 h post hypoxia initiation, hypoxia time 0.5 h", "result": 1.6, "unit": "pg/mg protein"},
      {"measurement": "HIF-1α difference from untreated controls", "setting": "[2]; AG 10.0 mM, 24 h post hypoxia initiation, hypoxia time 1.0 h", "result": 3.8, "unit": "pg/mg protein"},
      {"measurement": "HIF-1α difference from untreated controls", "setting": "[2]; AG 10.0 mM, 24 h post hypoxia initiation, hypoxia time 2.0 h", "result": 1, "unit": "pg/mg protein"},
      {"measurement": "HIF-1α difference from untreated controls", "setting": "[2]; AG 10.0 mM, 24 h post hypoxia initiation, hypoxia time 4.0 h", "result": 0.1, "unit": "pg/mg protein"},
      {"measurement": "HIF-1α 12 hours after hypoxia initiation", "setting": "[2]; AG 10.0 mM, hypoxia time 0.5 h", "result": 5.2, "unit": "pg/mg protein"},
      {"measurement": "HIF-1α 24 hours after hypoxia initiation", "setting": "[2]; AG 10.0 mM, hypoxia time 0.5 h", "result": 3.6, "unit": "pg/mg protein"},
      {"measurement": "HIF-1α 12 hours after hypoxia initiation", "setting": "[2]; AG 10.0 mM, hypoxia time 1.0 h", "result": 3.9, "unit": "pg/mg protein"},
      {"measurement": "HIF-1α 24 hours after hypoxia initiation", "setting": "[2]; AG 10.0 mM, hypoxia time 1.0 h", "result": 3.9, "unit": "pg/mg protein"},
      {"measurement": "HIF-1α 12 hours after hypoxia initiation", "setting": "[2]; AG 10.0 mM, hypoxia time 2.0 h", "result": 4.1, "unit": "pg/mg protein"},
      {"measurement": "HIF-1α 24 hours after hypoxia initiation", "setting": "[2]; AG 10.0 mM, hypoxia time 2.0 h", "result": 4.1, "unit": "pg/mg protein"},
      {"measurement": "HIF-1α 12 hours after hypoxia initiation", "setting": "[2]; AG 10.0 mM, hypoxia time 4.0 h", "result": 5.5, "unit": "pg/mg protein"},
      {"measurement": "HIF-1α 24 hours after hypoxia initiation", "setting": "[2]; AG 10.0 mM, hypoxia time 4.0 h", "result": 5.5, "unit": "pg/mg protein"},
      {"measurement": "HIF-1α difference from untreated controls", "setting": "[2]; Average all doses, 12 h post hypoxia initiation, hypoxia time 0.5 h", "result": 3.1, "unit": "pg/mg protein"},
      {"measurement": "HIF-1α difference from untreated controls", "setting": "[2]; Average all doses, 12 h post hypoxia initiation, hypoxia time 1.0 h", "result": 3.27, "unit": "pg/mg protein"},
      {"measurement": "HIF-1α difference from untreated controls", "setting": "[2]; Average all doses, 12 h post hypoxia initiation, hypoxia time 2.0 h", "result": 2.17, "unit": "pg/mg protein"},
      {"measurement": "HIF-1α difference from untreated controls", "setting": "[2]; Average all doses, 12 h post hypoxia initiation, hypoxia time 4.0 h", "result": 0.87, "unit": "pg/mg protein"},
      {"measurement": "HIF-1α difference from untreated controls", "setting": "[2]; Average all doses, 24 h post hypoxia initiation, hypoxia time 0.5 h", "result": 1.43, "unit": "pg/mg protein"},
      {"measurement": "HIF-1α difference from untreated controls", "setting": "[2]; Average all doses, 24 h post hypoxia initiation, hypoxia time 1.0 h", "result": 4.07, "unit": "pg/mg protein"},
      {"measurement": "HIF-1α difference from untreated controls", "setting": "[2]; Average all doses, 24 h post hypoxia initiation, hypoxia time 2.0 h", "result": 1.57, "unit": "pg/mg protein"},
      {"measurement": "HIF-1α difference from untreated controls", "setting": "[2]; Average all doses, 24 h post hypoxia initiation, hypoxia time 4.0 h", "result": 0.67, "unit": "pg/mg protein"},
      {"measurement": "effect on HIF-1α as compared to untreated cells", "setting": "[2]; at 12 and 24 hours, all durations of hypoxia", "result": "reduction of HIF-1α"}
    ]}
  ]
}
